Read-outs that look alike come from different tables or passages of the source.
How the values were obtained:
Assay in all cases: Cell viability, panel of AML cell lines
Format in all cases: cell-based
[1] = tested on: EOL-1; conditions: Homo sapiens, EOL1, EOL-1 cells
Description: (§1) Representative human AML cell lines (FIG. 2A; upper and lower panels) HL60/VCR and (FIG. 2B; upper and lower panels) OCI-AML2 were treated with SACLAC for 24 and 48 hours. Viability was assessed by MTS assay at 24 and 48 hours and apoptosis was assessed by flow cytometry at 48 hours. Upper panels represent % viability and lower panels indicate % apoptosis.
(§2) Two representative human-derived AML cell lines, HL60/VCR and OCI-AML2, are shown. These studies have been expanded to a large panel of additional human AML cell lines (n=30, Table 1).

[2] = tested on: HEL; conditions: Homo sapiens, HEL cells
Description: as §1, §2

[3] = tested on: HL60/ABTR; conditions: Homo sapiens, HL-60, HL60/ABTR cells (drug resistant variant)
Description: as §1, §2

[4] = tested on: HL60/VCR; conditions: Homo sapiens, HL60/VCR cells (drug resistant variant)
Description: as §1, §2

[5] = tested on: HL60; conditions: Homo sapiens, HL-60, HL60 cells
Description: as §1, §2

[6] = tested on: KG1a; conditions: Homo sapiens, KG-1a, KG1a cells
Description: as §1, §2

[7] = tested on: KGI/ABTR; conditions: Homo sapiens, KGI/ABTR cells
Description: as §1, §2

[8] = tested on: KGIa/ABTR; conditions: Homo sapiens, KGIa/ABTR cells
Description: as §1, §2

[9] = tested on: Kasumi-1; conditions: Homo sapiens, Kasumi-1 cells
Description: as §1, §2

[10] = tested on: Kasumi-3; conditions: Homo sapiens, Kasumi-3 cells
Description: as §1, §2

[11] = tested on: Kasumi-6; conditions: Homo sapiens, Kasumi-6 cells
Description: as §1, §2

[12] = tested on: ME-1; conditions: Homo sapiens, ME-1 cells
Description: as §1, §2

[13] = tested on: ML2; conditions: Homo sapiens, ML-2, ML2 cells
Description: as §1, §2

[14] = tested on: MM-6; conditions: Homo sapiens, MM-6 cells
Description: as §1, §2

[15] = tested on: MOLM-13; conditions: Homo sapiens, MOLM-13 cells
Description: as §1, §2

[16] = tested on: MOLM-14; conditions: Homo sapiens, MOLM-14 cells
Description: as §1, §2

[17] = tested on: MV4-11; conditions: Homo sapiens, MV4-11 cells
Description: as §1, §2

[18] = tested on: NB4; conditions: Homo sapiens, NB-4, NB4 cells
Description: as §1, §2

[19] = tested on: NOMO1; conditions: Homo sapiens, NOMO-1, NOMO1 cells
Description: as §1, §2

[20] = tested on: OCI-AML2; conditions: Homo sapiens, OCI-AML2 cells
Description: as §1, §2

[21] = tested on: OCI-AML4; conditions: Homo sapiens, OCI-AML4 cells
Description: as §1, §2

[22] = tested on: OCI-M2; conditions: Homo sapiens
Description: as §1, §2

[23] = tested on: SET2; conditions: Homo sapiens, SET-2, SET2 cells
Description: as §1, §2

[24] = tested on: SKM1; conditions: Homo sapiens, SKM-1, SKM1 cells
Description: as §1, §2

[25] = tested on: SKNO1; conditions: Homo sapiens, SKNO-1, SKNO1 cells
Description: as §1, §2

[26] = tested on: THF-1; conditions: Homo sapiens, THF-1 cells
Description: as §1, §2

[27] = tested on: U937; conditions: Homo sapiens, U-937, U937 cells
Description: as §1, §2

CCCCCCCCCCCCCCC[C@@H](O)[C@H](CO)NC(=O)CCl [SACLAC, 2-chloro-N-((2S,3R)-1,3-dihydroxyoctadecan-2-yl)acetamide]
EC50 ([1]; 24 h, read-out: EC50 24 h): 1 µM | EC50 ([1]; 48 h, read-out: EC50 48 h): 1.1 µM | EC50 ([2]; 24 h, read-out: EC50 24 h): 1.2 µM | EC50 ([2]; 48 h, read-out: EC50 48 h): 1.6 µM | EC50 ([3]; 24 h, read-out: EC50 24 h): 2.5 µM | EC50 ([3]; 48 h, read-out: EC50 48 h): 3 µM | EC50 ([4]; 24 h, read-out: EC50 24 h): 3.3 µM | EC50 ([4]; 48 h, read-out: EC50 48 h): 2.4 µM | EC50 ([5]; 24 h, read-out: EC50 24 h): 1.8 µM | EC50 ([5]; 48 h, read-out: EC50 48 h): 1.2 µM | EC50 ([6]; 24 h, read-out: EC50 24 h): 5.6 µM | EC50 ([6]; 48 h, read-out: EC50 48 h): 3.5 µM | EC50 ([7]; 24 h, read-out: EC50 24 h): 5.4 µM | EC50 ([7]; 48 h, read-out: EC50 48 h): 4.1 µM | EC50 ([8]; 24 h, read-out: EC50 24 h): 2.9 µM | EC50 ([8]; 48 h, read-out: EC50 48 h): 2.7 µM | EC50 ([9]; 24 h, read-out: EC50 24 h): 0.8 µM | EC50 ([9]; 48 h, read-out: EC50 48 h): 0.8 µM | EC50 ([10]; 24 h, read-out: EC50 24 h): 0.5 µM | EC50 ([10]; 48 h, read-out: EC50 48 h): 0.7 µM | EC50 ([11]; 24 h, read-out: EC50 24 h): 2.1 µM | EC50 ([11]; 48 h, read-out: EC50 48 h): 2.7 µM | EC50 ([12]; 24 h, read-out: EC50 24 h): 2.1 µM | EC50 ([12]; 48 h, read-out: EC50 48 h): 1.2 µM | EC50 ([13]; 24 h, read-out: EC50 24 h): 1.7 µM | EC50 ([13]; 48 h, read-out: EC50 48 h): 1.8 µM | EC50 ([14]; 24 h, read-out: EC50 24 h): 7.8 µM | EC50 ([14]; 48 h, read-out: EC50 48 h): 6 µM | EC50 ([15]; 24 h, read-out: EC50 24 h): 1.1 µM | EC50 ([15]; 48 h, read-out: EC50 48 h): 1.4 µM | EC50 ([16]; 24 h, read-out: EC50 24 h): 0.5 µM | EC50 ([16]; 48 h, read-out: EC50 48 h): 0.5 µM | EC50 ([17]; 24 h, read-out: EC50 24 h): 2.3 µM | EC50 ([17]; 48 h, read-out: EC50 48 h): 1.3 µM | EC50 ([18]; 24 h, read-out: EC50 24 h): 0.2 µM | EC50 ([18]; 48 h, read-out: EC50 48 h): 0.6 µM | EC50 ([19]; 24 h, read-out: EC50 24 h): 1.1 µM | EC50 ([19]; 48 h, read-out: EC50 48 h): 0.8 µM | EC50 ([20]; 24 h, read-out: EC50 24 h): 1.8 µM | EC50 ([20]; 48 h, read-out: EC50 48 h): 1.1 µM | EC50 ([21]; 24 h, read-out: EC50 24 h): 1.4 µM | EC50 ([21]; 48 h, read-out: EC50 48 h): 0.7 µM | EC50 ([22]; OCI-M2, 24 h, read-out: EC50 24 h): > 10 µM | EC50 ([22]; OCI-M2, 48 h, read-out: EC50 48 h): > 10 µM | viability at 10 µM ([22]; OCI-M2 cells, 10 μM, read-out: viable cells at the highest tested dose): 60% | EC50 ([23]; 24 h, read-out: EC50 24 h): 2.6 µM | EC50 ([23]; 48 h, read-out: EC50 48 h): 3.3 µM | EC50 ([24]; 24 h, read-out: EC50 24 h): 1.6 µM | EC50 ([24]; 48 h, read-out: EC50 48 h): 0.7 µM | EC50 ([25]; 24 h, read-out: EC50 24 h): 0.9 µM | EC50 ([25]; 48 h, read-out: EC50 48 h): 0.8 µM | EC50 ([26]; 24 h, read-out: EC50 24 h): 6.7 µM | EC50 ([26]; 48 h, read-out: EC50 48 h): 4.8 µM | EC50 ([27]; 24 h, read-out: EC50 24 h): 1 µM | EC50 ([27]; 48 h, read-out: EC50 48 h): 1.7 µM

Reference: patent US11426371B2, “Compositions and methods for treating cancer” (University of Virginia Patent Foundation, priority 2017, dated 2022)
